Several values for one entry are separate records, joined by “and”; a condition that tells them apart may be missing. Identical values can stand only once.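 Dose response: 5 concentrations. Exposure: 48 h. Format: 96-well plates. Endpoint: linear interpolation; highest concentration if not reached. GI50 = concentration required for 50% inhibition of growth. TGI is the concentration that stops growth completely.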
Experiments:
Assay in all cases: NCI tumour cell line growth inhibition, 48 h
SF-295 CNS = system: SF-295 CNS
MDA-MB-231 breast = system: MDA-MB-231 breast
OVCAR-8 ovarian = system: OVCAR-8 ovarian
NCI-H226 lung = system: NCI-H226 lung
HOP-92 NSCLC = system: HOP-92 NSCLC
SW-620 colon = system: SW-620 colon
HCC-2998 colon = system: HCC-2998 colon
UACC-62 melanoma = system: UACC-62 melanoma
HOP-62 NSCLC = system: HOP-62 NSCLC
KM12 colon = system: KM12 colon

Compound | GI50 (SF-295 CNS) | TGI (SF-295 CNS) | GI50 (MDA-MB-231 breast) | TGI (MDA-MB-231 breast) | GI50 (OVCAR-8 ovarian) | TGI (OVCAR-8 ovarian) | GI50 (NCI-H226 lung) | TGI (NCI-H226 lung) | GI50 (HOP-92 NSCLC) | TGI (HOP-92 NSCLC) | GI50 (SW-620 colon) | TGI (SW-620 colon) | GI50 (HCC-2998 colon) | TGI (HCC-2998 colon) | GI50 (UACC-62 melanoma) | TGI (UACC-62 melanoma) | GI50 (HOP-62 NSCLC) | TGI (HOP-62 NSCLC) | GI50 (KM12 colon) | TGI (KM12 colon)
COc1cccc2c1C(=O)c1c(O)c3c(c(O)c1C2=O)C[C@@](O)(C(=O)CO)C[C@@H]3OC1C[C@H](N)[C@H](O)[C@H](C)O1 (stereo partly drawn) | 0.0371 µM | 0.372 µM | 0.144 µM | 5.41 µM | 0.067 µM | > 16.2 µM | 0.0201 µM | 0.102 µM | 0.0236 µM | 0.233 µM | 0.0312 µM | 2.97 µM | 0.0678 µM | 0.34 µM | 0.0346 µM | 0.117 µM | 0.033 µM | 0.323 µM | 0.135 µM | 6.27 µM
CN1CCN(Cc2ccc(NC(=O)c3ccc(C#Cc4c(N)ncc5ccc(F)cc45)cc3)cc2C(F)(F)F)CC1 | 1.04 µM | 2.04 µM | 1.14 µM | 2.04 µM | 0.955 µM | 1.81 µM | 1.07 µM | 2.6 µM | 0.705 µM | 1.45 µM | 0.972 µM | 1.87 µM | 0.87 µM | 1.62 µM | 1 µM | 1.84 µM | 0.883 µM | 1.59 µM | 0.733 µM | 1.52 µM
COc1cc(/C=C2\CCC(CN(C)C)C2=O)ccc1OC(=O)c1ccccc1 (stereo not drawn) | – | 32 µM | – | 19.1 µM | – | 22 µM | – | 33.8 µM | – | 32.6 µM | – | 17.8 µM | – | 30.1 µM | – | 30.9 µM | – | 23.5 µM | – | 13.7 µM
O=C(Nc1ccc(Cl)cc1)c1cc(-c2ccc(Cl)cc2)c2sc(=O)[nH]c2n1 | 1.56 µM | 4.37 µM | 1.66 µM | 3.56 µM | 2.04 µM | 12.8 µM | 2.26 µM | 9.18 µM | 0.526 µM | 3.94 µM | 2.9 µM | 15.2 µM | 2.17 µM | 14.5 µM | 1.04 µM | 4.91 µM | 2.58 µM | 8.85 µM | 1.58 µM | 10.3 µM
Cc1ccc2c(O)c(O)cc(NC(C)CCCN)c2n1 (stereo not drawn) | > 48 µM | > 74.2 µM | 7.22 µM | 74 µM | 4.35 µM | > 100 µM | 44.9 µM | > 100 µM | 57.5 µM | > 100 µM | 10.2 µM | 51.3 µM | 9.11 µM | > 51.5 µM | 27.3 µM | > 66.8 µM | 28.1 µM | > 100 µM | 25 µM | 98.9 µM
COc1ccc2c(c1)C(c1ccccc1Cl)=Nc1c(n[nH]c1C)N2 | > 25 µM | > 25 µM | > 25 µM | > 25 µM | > 25 µM | > 25 µM | 3.28 µM | > 25 µM | > 25 µM | > 25 µM | > 16.1 µM | > 25 µM | > 25 µM | > 25 µM | 25 µM | > 25 µM | > 25 µM | > 25 µM | 0.995 µM | > 25 µM
C/C(=N\N=C(/[Se])N1CC2CCC(CC2)C1)c1ccccn1 | – | 2.24 µM | – | 2.65 µM | – | 2.34 µM | – | 1.88 µM | – | 1.18 µM | – | 0.608 µM | – | 1.5 µM | – | 0.711 µM | – | 1.92 µM | – | 1.54 µM
COc1cc(/C=C2\CN(C)C/C(=C\c3cc(CN4CCCCC4)c(O)c(OC)c3)C2=O)cc(CN2CCCCC2)c1O | 4.52 µM | 17.1 µM | 3.18 µM | 11.6 µM | 3.12 µM | > 100 µM | 10.5 µM | 25.9 µM | 2.55 µM | 9.21 µM | 3.27 µM | 12.6 µM | 2.61 µM | 12 µM | 7.2 µM | 20.3 µM | 4.28 µM | 18.4 µM | 2.17 µM | 4.97 µM
O=C(O)c1ccc(N/C=C2\C(=O)c3ccccc3OC2O)cc1O (stereo not drawn) | 5.96 µg/mL | 28.7 µg/mL | 22 µg/mL | 54.6 µg/mL | 22 µg/mL | 97.2 µg/mL | 46.5 µg/mL | > 150 µg/mL | 4.11 µg/mL | 36.5 µg/mL | 20.3 µg/mL | 48.3 µg/mL | 24.1 µg/mL | 45.4 µg/mL | 17.4 µg/mL | 52.4 µg/mL | 24.8 µg/mL | 63.7 µg/mL | 23.4 µg/mL | 48.5 µg/mL
COc1cc(-c2nc3sc4c(c3c(=O)[nH]2)CCCCCC4)cc(OC)c1OC | 0.692 µM | 6.53 µM | 1.07 µM | 29.5 µM | 1.52 µM | > 33.2 µM | 3.6 µM | > 33.2 µM | 0.887 µM | 9.45 µM | 1.5 µM | > 33.2 µM | 2.41 µM | > 33.2 µM | 0.743 µM | 30.3 µM | 1.36 µM | > 33.2 µM | 1.21 µM | > 33.2 µM
N#CC1=C(N)NC(=O)NC12Nc1ccccc1S2 (stereo not drawn) | 26.4 µM | > 65.7 µM | 10.4 µM | 31.2 µM | 6.07 µM | > 37.8 µM | 14.4 µM | 36.9 µM | 91.3 µM | > 100 µM | 28.8 µM | > 72.6 µM | 35.5 µM | > 100 µM | 14.7 µM | 36.4 µM | 23.1 µM | 56.7 µM | 26.5 µM | > 68.4 µM
c1ccc(-n2nnnc2-c2cccc3ccccc23)cc1 | 0.395 µM | 19.9 µM | 1.34 µM | 28.8 µM | 1.48 µM | > 100 µM | 15.5 µM | > 100 µM | 1.19 µM | 24.3 µM | 0.453 µM | > 100 µM | 1.12 µM | 10.3 µM | 0.666 µM | > 100 µM | 0.765 µM | > 100 µM | 0.396 µM | 22.8 µM
S=C1Nc2ccc(Cl)cc2C2(c3ccccc3)N3CCN=C3NN12 (stereo not drawn) | 28.6 µM | > 100 µM | 32.5 µM | > 100 µM | 52.3 µM | > 100 µM | 33.9 µM | > 100 µM | 32.3 µM | > 100 µM | 29.2 µM | 83.5 µM | 67 µM | > 100 µM | 29.3 µM | > 100 µM | 33.3 µM | > 100 µM | 52.1 µM | > 100 µM
NS(=O)(=O)c1cccc(N=Cc2c(O)[nH]c3ccccc23)c1 | > 25 µM | > 25 µM | > 25 µM | > 25 µM | > 25 µM | > 25 µM | > 25 µM | > 25 µM | > 25 µM | > 25 µM | > 25 µM | > 25 µM | > 25 µM | > 25 µM | > 25 µM | > 25 µM | > 25 µM | > 25 µM | 8.04 µM | > 25 µM
Cc1cc(C)c(O)c(CN(C)Cc2cc(Cl)cc(Cl)c2O)c1 | 2.18 µM | 6.18 µM | 2.97 µM | 12.8 µM | 2.78 µM | 12.1 µM | 6.56 µM | 23.1 µM | 3.07 µM | 13.3 µM | 3.71 µM | 14.3 µM | 4.8 µM | 17.4 µM | 3.42 µM | 13.1 µM | 5.46 µM | 18.3 µM | 5.31 µM | 17.7 µM
CC(=O)OC1CC2(O)C3CCC4CC(O)CCC4(C)C3CCC2(C)C1C1=CC(=O)OC1 (stereo not drawn) | – | 0.222 µM | – | 6.61 µM | – | 0.272 µM | – | 0.784 µM | – | 19.3 µM | – | 1.41 µM | – | 0.39 µM | – | 0.475 µM | – | 0.178 µM | – | 1.87 µM
N#CCc1ncc(-c2ccc(C(F)(F)F)cc2)c(NC2CCCCCC2)n1 | > 10 µM | > 10 µM | > 10 µM | > 10 µM | > 10 µM | > 10 µM | > 10 µM | > 10 µM | > 10 µM | > 10 µM | > 10 µM | > 10 µM | > 10 µM | > 10 µM | > 10 µM | > 10 µM | > 10 µM | > 10 µM | > 10 µM | > 10 µM
COc1cc2c[n+](C)c3c4ccccc4ccc3c2cc1OC (tested in a mixture with another compound) | – | 71.5 µM | 10.3 µM | 9.2 µM and 25.6 µM | 3.57 µM | 31.7 µM | – | 33 µM | 5.25 µM | 28.6 µM | 2.71 µM | 48 µM | 6.36 µM | 21.3 µM | 3.08 µM | 20.3 µM | 6.41 µM | 49.7 µM | 0.544 µM | 2.5 µM and 13.2 µM
O=c1[nH]cnc2[nH]ncc12 | 349 µM | > 5000 µM | 163 µM | 1750 µM | 214 µM | > 5000 µM | 878 µM | > 5000 µM | 163 µM | > 3250 µM | 356 µM | > 5000 µM | 319 µM | > 5000 µM | 166 µM | > 2560 µM | 353 µM | > 5000 µM | 1250 µM | > 5000 µM

— PubChem BioAssay (NCI)
